Measurements published in ChEMBL document CHEMBL3727350, “Agents and methods for treating ischemic and other diseases” (2014).
The source made the active and inactive calls. No cut-off for these calls is given here.

Legend:
MCF7 = assay: Inhibition of cell proliferation of human MCF7 cells at 10 uM incubated for 48 to 96 hrs; format: functional
B16-F10 = assay: Inhibition of cell proliferation of mouse B16F10 cells at 1.25 to 10 uM incubated for 72 hrs by SRB assay; format: functional, cell-based
H9c2 [1] = assay: Toxicity against rat H9c2 cells at 5 uM; format: cell-based; conditions: h9c2, 5 µM
[2] = target: Transient receptor potential cation channel subfamily M member 7 (Rattus norvegicus) (UniProt Q925B3); assay: Inhibition of TRPM7 in rat H9C2 cells assessed as reduction in channel currents at 0.3 to 30 uM by whole cell patch clamp assay; format: cell-based
Transient receptor potential cation channel subfamily M member 7 (Rattus norvegicus), sequence (Q925B3 whole entry): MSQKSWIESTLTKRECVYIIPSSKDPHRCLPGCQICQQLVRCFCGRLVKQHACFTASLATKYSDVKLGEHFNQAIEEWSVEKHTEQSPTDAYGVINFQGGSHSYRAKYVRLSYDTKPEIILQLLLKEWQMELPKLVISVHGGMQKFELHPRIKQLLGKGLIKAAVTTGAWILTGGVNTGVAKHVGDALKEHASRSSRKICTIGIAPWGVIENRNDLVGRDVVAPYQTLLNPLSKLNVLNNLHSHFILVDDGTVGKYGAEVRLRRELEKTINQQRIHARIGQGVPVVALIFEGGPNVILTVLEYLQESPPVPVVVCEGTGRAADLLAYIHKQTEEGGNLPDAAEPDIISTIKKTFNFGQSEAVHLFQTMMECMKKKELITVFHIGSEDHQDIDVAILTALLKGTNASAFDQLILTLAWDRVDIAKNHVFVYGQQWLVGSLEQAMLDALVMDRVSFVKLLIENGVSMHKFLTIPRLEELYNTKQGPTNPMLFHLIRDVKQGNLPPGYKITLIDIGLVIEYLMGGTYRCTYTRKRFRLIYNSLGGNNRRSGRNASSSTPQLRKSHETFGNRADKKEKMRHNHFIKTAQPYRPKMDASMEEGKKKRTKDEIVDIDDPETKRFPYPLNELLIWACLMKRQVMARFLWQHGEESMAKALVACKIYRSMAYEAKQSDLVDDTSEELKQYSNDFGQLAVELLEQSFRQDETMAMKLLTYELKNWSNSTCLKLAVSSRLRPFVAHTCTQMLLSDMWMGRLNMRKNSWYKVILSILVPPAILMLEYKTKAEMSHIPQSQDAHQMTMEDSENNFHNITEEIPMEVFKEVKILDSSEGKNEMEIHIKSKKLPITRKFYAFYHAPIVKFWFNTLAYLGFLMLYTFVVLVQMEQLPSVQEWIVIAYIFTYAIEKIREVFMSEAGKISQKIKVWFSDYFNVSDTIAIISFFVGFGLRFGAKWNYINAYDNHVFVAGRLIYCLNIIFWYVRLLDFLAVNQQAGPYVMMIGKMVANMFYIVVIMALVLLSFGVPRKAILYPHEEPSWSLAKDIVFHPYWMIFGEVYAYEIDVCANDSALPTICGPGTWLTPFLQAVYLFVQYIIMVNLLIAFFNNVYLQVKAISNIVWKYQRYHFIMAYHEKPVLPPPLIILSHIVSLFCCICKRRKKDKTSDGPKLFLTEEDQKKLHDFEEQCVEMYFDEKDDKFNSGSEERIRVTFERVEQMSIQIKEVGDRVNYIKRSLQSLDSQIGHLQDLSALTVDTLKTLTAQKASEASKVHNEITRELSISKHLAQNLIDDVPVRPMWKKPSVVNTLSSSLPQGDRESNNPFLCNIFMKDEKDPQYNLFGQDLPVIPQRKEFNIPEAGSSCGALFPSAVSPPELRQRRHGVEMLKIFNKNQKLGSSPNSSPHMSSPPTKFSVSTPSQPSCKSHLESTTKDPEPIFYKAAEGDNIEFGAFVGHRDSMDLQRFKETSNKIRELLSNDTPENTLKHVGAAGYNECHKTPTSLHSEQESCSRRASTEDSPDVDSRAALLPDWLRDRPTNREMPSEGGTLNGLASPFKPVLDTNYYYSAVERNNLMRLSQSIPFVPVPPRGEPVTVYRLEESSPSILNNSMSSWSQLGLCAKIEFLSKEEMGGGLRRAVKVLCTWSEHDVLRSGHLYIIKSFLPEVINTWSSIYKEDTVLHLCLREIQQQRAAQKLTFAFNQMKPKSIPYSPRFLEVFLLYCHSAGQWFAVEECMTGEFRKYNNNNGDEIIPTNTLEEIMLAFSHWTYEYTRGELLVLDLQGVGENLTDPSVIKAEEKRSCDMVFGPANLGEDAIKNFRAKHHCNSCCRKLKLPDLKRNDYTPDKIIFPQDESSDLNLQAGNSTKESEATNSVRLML

[3] = Inhibition of cell proliferation of mouse B16F10 cells at 10 uM incubated for 48 to 96 hrs; format: functional; conditions: B16-F10
[4] = target: Transient receptor potential cation channel subfamily M member 7 (Mus musculus) (UniProt Q923J1); assay: Inhibition of Tet-induced Flag-tagged mouse TRPM7 expressed in HEK293 cells assessed as reduction in channel currents at 0.3 to 30 uM by whole cell patch clamp assay; format: cell-based
Transient receptor potential cation channel subfamily M member 7 (Mus musculus), sequence (Q923J1 whole entry): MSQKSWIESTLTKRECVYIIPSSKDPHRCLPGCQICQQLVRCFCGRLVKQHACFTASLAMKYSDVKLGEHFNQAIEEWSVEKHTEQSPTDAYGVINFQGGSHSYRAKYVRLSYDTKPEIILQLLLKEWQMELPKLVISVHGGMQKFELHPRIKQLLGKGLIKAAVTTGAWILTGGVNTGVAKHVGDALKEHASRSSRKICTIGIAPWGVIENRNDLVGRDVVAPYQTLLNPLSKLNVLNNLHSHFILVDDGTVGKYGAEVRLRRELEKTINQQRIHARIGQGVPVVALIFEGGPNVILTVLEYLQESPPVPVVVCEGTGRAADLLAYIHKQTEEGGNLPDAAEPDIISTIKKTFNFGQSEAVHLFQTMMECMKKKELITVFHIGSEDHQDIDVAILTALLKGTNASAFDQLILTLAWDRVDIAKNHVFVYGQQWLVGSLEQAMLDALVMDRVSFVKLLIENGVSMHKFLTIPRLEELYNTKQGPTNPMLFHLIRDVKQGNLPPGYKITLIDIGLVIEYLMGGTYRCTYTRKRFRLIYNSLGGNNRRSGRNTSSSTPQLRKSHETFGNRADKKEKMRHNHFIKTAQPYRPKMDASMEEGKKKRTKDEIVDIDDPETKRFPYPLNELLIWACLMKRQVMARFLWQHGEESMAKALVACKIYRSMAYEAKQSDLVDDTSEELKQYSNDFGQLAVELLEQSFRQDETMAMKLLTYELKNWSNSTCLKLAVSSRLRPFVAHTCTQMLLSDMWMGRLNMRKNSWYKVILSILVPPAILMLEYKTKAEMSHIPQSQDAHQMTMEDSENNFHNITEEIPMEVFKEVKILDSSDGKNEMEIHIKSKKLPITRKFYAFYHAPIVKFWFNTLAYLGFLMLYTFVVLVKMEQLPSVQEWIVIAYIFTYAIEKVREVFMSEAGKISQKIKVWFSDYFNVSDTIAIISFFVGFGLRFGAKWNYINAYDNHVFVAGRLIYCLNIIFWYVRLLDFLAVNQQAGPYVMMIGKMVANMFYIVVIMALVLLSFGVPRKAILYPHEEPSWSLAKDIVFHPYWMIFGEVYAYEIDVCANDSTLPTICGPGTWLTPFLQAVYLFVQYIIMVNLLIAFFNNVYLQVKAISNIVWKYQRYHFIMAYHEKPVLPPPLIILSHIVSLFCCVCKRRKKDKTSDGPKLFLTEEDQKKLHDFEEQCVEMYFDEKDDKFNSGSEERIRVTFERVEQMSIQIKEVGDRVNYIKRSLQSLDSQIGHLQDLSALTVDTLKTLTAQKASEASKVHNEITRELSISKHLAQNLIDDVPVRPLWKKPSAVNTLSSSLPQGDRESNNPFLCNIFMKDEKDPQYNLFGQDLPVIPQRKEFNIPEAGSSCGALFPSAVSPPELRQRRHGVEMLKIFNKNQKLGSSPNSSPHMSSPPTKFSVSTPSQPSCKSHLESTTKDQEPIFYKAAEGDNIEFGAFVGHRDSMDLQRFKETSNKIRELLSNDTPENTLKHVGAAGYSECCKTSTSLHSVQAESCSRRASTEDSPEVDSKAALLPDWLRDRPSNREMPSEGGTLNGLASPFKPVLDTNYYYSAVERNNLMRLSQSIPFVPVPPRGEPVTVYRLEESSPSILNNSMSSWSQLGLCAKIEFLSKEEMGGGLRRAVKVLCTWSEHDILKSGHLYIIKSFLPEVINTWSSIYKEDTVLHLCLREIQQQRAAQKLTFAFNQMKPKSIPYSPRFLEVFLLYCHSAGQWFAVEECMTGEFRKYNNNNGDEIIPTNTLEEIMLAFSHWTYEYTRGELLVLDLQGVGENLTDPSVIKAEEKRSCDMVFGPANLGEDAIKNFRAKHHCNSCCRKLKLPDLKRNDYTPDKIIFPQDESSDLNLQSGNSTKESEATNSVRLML

U2OS = assay: Inhibition of cell proliferation of human U2OS cells at 10 uM incubated for 48 to 96 hrs; format: functional
[5] = Inhibition of cell proliferation of mouse B16-F1 cells at 10 uM incubated for 48 to 96 hrs; format: functional
[6] = target: Transient receptor potential cation channel subfamily M member 7 (Rattus norvegicus) (UniProt Q925B3); assay: Inhibition of TRPM7 in cultured rat retinal ganglion cells exposed to oxygen glucose deprivation condition for 3 hrs assessed as protection against TRPM7-mediated cell death at by propidium iodide uptake assay; set-up: scale not given: the % may be the effect or the level left
[7] = target: Transient receptor potential cation channel subfamily M member 7 (Mus musculus) (UniProt Q923J1); assay: Inhibition of TRPM7 in mouse primary neuronal cells exposed to oxygen glucose deprivation condition for 1 to 3 hrs assessed as reduction in TRPM7-mediated anoxic cell death dosed after oxygen glucose deprivation condition by propidium iodide uptake assay; conditions: Primary neuron
MDA-MB-231 [8] = assay: Inhibition of cell proliferation of human MDA-MB-231 cells at 10 uM incubated for 48 to 96 hrs; format: functional
SW13 [9] = assay: Inhibition of cell proliferation of human SW13 cells at 1.25 to 10 uM incubated for 72 hrs by SRB assay; format: functional, cell-based
Y79 = assay: Inhibition of cell proliferation of human Y79 cells at 10 uM incubated for 48 to 96 hrs; format: functional
[10] = target: Transient receptor potential cation channel subfamily M member 7 (Rattus norvegicus) (UniProt Q925B3); assay: Inhibition of TRPM7 in Sprague-Dawley rat retinal explants subjected to 1 hr oxygen-glucose deprivation assessed as reduction in retinal ischemia at 5 uM
H9c2 [11] = assay: Toxicity against rat H9c2 cells at 10 uM; format: cell-based; conditions: h9c2, 10 µM
[12] = target: Transient receptor potential cation channel subfamily M member 7 (Rattus norvegicus) (UniProt Q925B3); assay: Inhibition of TRPM7 in rat retinal explants exposed to oxygen glucose deprivation condition for 1 hr assessed as protection against TRPM7-mediated cell death at by propidium iodide uptake assay
[13] = target: Transient receptor potential cation channel subfamily M member 7 (Mus musculus) (UniProt Q923J1); assay: Inhibition of Tet-induced Flag-tagged mouse TRPM7 expressed in HEK293 cells assessed as inhibition of channel-mediated cell death in presence of Mg2+ incubated for 24 to 48 hrs by propidium iodide uptake assay; format: cell-based; set-up: concentration or dose not given beside the values; conditions: concentration not given here
[14] = Inhibition of cell proliferation of human DMS53 cells at 10 uM incubated for 48 to 96 hrs; format: functional; conditions: DMS-53
Mus musculus [15] = species on record: Mus musculus; assay: Inhibition of calcium channel in mouse cortical neurons assessed as effect on Ca2+ currents; format: functional
HeLa = assay: Inhibition of cell proliferation of human HeLa cells at 10 uM incubated for 48 to 96 hrs; format: functional
MDA-MB-231 [16] = assay: Inhibition of cell proliferation of human MDA-MB-231 cells at 1.25 to 10 uM incubated for 72 hrs by SRB assay; format: functional, cell-based
B16-F1 = assay: Inhibition of cell proliferation of mouse B16-F1 cells at 1.25 to 10 uM incubated for 72 hrs by SRB assay; format: functional, cell-based
[17] = Inhibition of cell proliferation of mouse NIH/3T3 cells at 1.25 to 10 uM incubated for 72 hrs by propidium iodide staining assay; format: cell-based; conditions: nih3t3, 72 h
SW13 [18] = assay: Inhibition of cell proliferation of human SW13 cells at 10 uM incubated for 48 to 96 hrs; format: functional
[19] = target: Transient receptor potential cation channel subfamily M member 7 (Rattus norvegicus) (UniProt Q925B3); assay: Inhibition of TRPM7 in rat H9C2 cells exposed to oxygen glucose deprivation condition for 1 to 6 hrs assessed as reduction in TRPM7-mediated anoxic cell death in presence of 1 uM nifedipine by propidium iodide uptake assay; format: cell-based
Mus musculus [20] = species on record: Mus musculus; assay: Inhibition of sodium channel in mouse cortical neurons assessed as effect on Na+ currents
[21] = target: Transient receptor potential cation channel subfamily M member 7 (Mus musculus) (UniProt Q923J1); assay: Inhibition of TRPM7 in mouse primary neuronal cells exposed to oxygen glucose deprivation condition for 1 to 3 hrs assessed as reduction in TRPM7-mediated anoxic cell death dosed before oxygen glucose deprivation condition by propidium iodide uptake assay; conditions: Primary neuron
[22] = target: Transient receptor potential cation channel subfamily M member 7 (Rattus norvegicus) (UniProt Q925B3); assay: Inhibition of TRPM7 in Sprague-Dawley rat retinal explants dissociated and subjected to 1 hr oxygen-glucose deprivation assessed as reduction in retinal cell death at 1 and 5 uM
Mus musculus [23] = species on record: Mus musculus; assay: Inhibition of potassium channel in mouse cortical neurons assessed as reduction in potassium currents
[24] = target: Transient receptor potential cation channel subfamily M member 7 (Mus musculus) (UniProt Q923J1); assay: Inhibition of TRPM7 in mouse mouse primary cortical neurons exposed to 2 hrs oxygen glucose deprivation condition assessed as reduction in TRPM7-mediated anoxic cell death measured after 20 hrs by propidium iodide uptake assay; format: cell-based; conditions: Cerebral cortex neuron

In the case of O=C(Nc1ccc(F)cc1)C(Sc1ccc(Cl)cc1)c1ccccc1 (stereo not given), the inhibition at 10 µM (MCF7) is reported as > 20%, the inhibition (B16-F10) is reported as “Active” and the Activity (H9c2 [1]) is reported as “Non-toxic”. For the same compound, the inhibition [2] was “Active”, the inhibition at 10 µM [3] was > 20% and the inhibition [4] was “Active”. For the same compound, the inhibition at 10 µM (U2OS) was > 20%, the inhibition at 10 µM [5] was > 20% and the Activity [6] was 66%. For the same compound, the inhibition [7] was “Active”, the inhibition at 10 µM (MDA-MB-231 [8]) was > 20% and the inhibition (SW13 [9]) was “Active”. For the same compound, the inhibition at 10 µM (Y79) was > 20%, the inhibition [10] was “Active” and the Activity (H9c2 [11]) was “Toxic”. For the same compound, the inhibition [12] was “Active”, the inhibition [13] was 80% and the inhibition at 10 µM [14] was > 20%. For the same compound, the inhibition (Mus musculus [15]) was “inactive”, the inhibition at 10 µM (HeLa) was > 20% and the inhibition (MDA-MB-231 [16]) was “Active”. For the same compound, the inhibition (B16-F1) was “Active”, the Activity [17] was “Non-toxic” and the inhibition at 10 µM (SW13 [18]) was > 20%. For the same compound, the inhibition [19] was “Active”, the inhibition (Mus musculus [20]) was “inactive” and the inhibition [21] was “Active”. For the same compound, the inhibition [22] was “Active”, the inhibition (Mus musculus [23]) was “Active” and the inhibition [24] was “Active”.
